Columns and labels:
wild oat = assay: Test B postemergence herbicide test; assay type: in vivo, Avena fatua; conditions: scale 0 (no effect) to 100 (complete control); for Plant response rating, Oat, Wild: visual rating after 13 to 15 days
Outline: (§1)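 Postemergence plants were sprayed with formulated test chemicals at 2 to 18 cm height (1- to 4-leaf stage); paddy species were grown to the 2-leaf stage. After 13 to 15 days in a greenhouse, injury was rated visually against untreated controls on a 0–100 scale (0 = no effect, 100 = complete control).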

lambsquarters = assay: Test B pre-/postemergence herbicide test; assay type: in vivo, Chenopodium album
Outline: (§2)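 Response was scored visually 13 to 15 days after treatment against untreated greenhouse controls, 0 meaning no effect and 100 complete control. Formulations (solvent mixture plus surfactant) went onto soil after planting, onto foliage of 1- to 4-leaf plants, and onto 2-leaf plants in a flooded paddy set including rice and barnyardgrass.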

blackgrass = assay: Test B postemergence herbicide test; assay type: in vivo, Alopecurus myosuroides
Outline: (§3)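 Greenhouse test; postemergence application to plants at 1–4 leaves (2–18 cm); paddy species at 2 leaves; evaluated visually vs controls at 13–15 days; scale 0–100 (100 = complete control).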

corn = assay: Test B pre-/postemergence herbicide test; assay type: in vivo, Zea mays
Outline: as §2

wheat = assay: Test B postemergence herbicide test; assay type: in vivo, Triticum aestivum; parameters: key to Wheat plant response rating: 0 = no effect, 100 = complete control; conditions: for Plant response rating, Wheat: visual rating after 13 to 15 days
Outline: as §1

Surinam grass = assay: Test B pre-/postemergence herbicide test; assay type: in vivo, Urochloa decumbens
Outline: as §2

cocklebur = assay: Test B pre-/postemergence herbicide test; assay type: in vivo, Xanthium strumarium
Outline: (§4)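 Greenhouse pot assay with simultaneous preemergence (treated seed) and postemergence (2–18 cm seedlings) applications of surfactant-containing, non-phytotoxic solvent formulations. Response scored visually 13–15 days later on a 0–100 scale, 100 meaning complete control.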

large crabgrass = assay: Test B pre-/postemergence herbicide test; assay type: in vivo, Digitaria sanguinalis
Outline: as §2

[1] = test system: small flower umbrella sedge; assay: Test B flooded paddy test; assay type: in vivo, Cyperus difformis; conditions: 1000 g ai/ha, scale 0 to 100 (0 no effect, 100 complete control)
Outline: as §3

velvetleaf = assay: Test B pre-/postemergence herbicide test; assay type: in vivo, Abutilon theophrasti
Outline: as §2

rice = assay: Test B flooded paddy test; assay type: in vivo, Oryza sativa; conditions: 1000 g ai/ha, scale 0 to 100 (0 no effect, 100 complete control)
Outline: as §1

morningglory = assay: Test B pre-/postemergence herbicide test; assay type: in vivo, Ipomoea coccinea
Outline: as §4

barnyardgrass [2] = assay: Test B pre-/postemergence herbicide test; assay type: in vivo, Echinochloa crus-galli
Outline: as §4

barnyardgrass [3] = assay: Test B flooded paddy test; assay type: in vivo, Echinochloa crus-galli; conditions: 1000 g ai/ha, scale 0 to 100 (0 no effect, 100 complete control)
Outline: as §3

ducksalad = assay: Test B flooded paddy test; assay type: in vivo, Heteranthera limosa; conditions: 1000 g ai/ha, scale 0 to 100 (0 no effect, 100 complete control)
Outline: as §3

[4] = postemergence, 125 g ai/ha, visual rating
[5] = Postemergence, 500 g ai/ha, visual rating after 13 to 15 days, scale 0 (no effect) to 100 (complete control)
[6] = Preemergence, 500 g ai/ha, scale 0 to 100
[7] = postemergence, 125 g ai/ha, visual rating, scale 0 (no effect) to 100 (complete control)
[8] = preemergence, 125 g ai/ha, 0 to 100 scale, 0 is no effect, 100 is complete control
[9] = Postemergence, 500 g ai/ha; visual rating after 13 to 15 days, scale 0 (no effect) to 100 (complete control)
[10] = postemergence, 125 g ai/ha; visual rating, scale 0 (no effect) to 100 (complete control)
[11] = Postemergence, 500 g ai/ha, scale 0 (no effect) to 100 (complete control)
[12] = 125 g ai/ha, 0 is no effect, 100 is complete control, preemergence
[13] = 125 g ai/ha, visual rating, scale 0 (no effect) to 100 (complete control), postemergence
[14] = postemergence, 500 g ai/ha, scale 0 to 100, 0 is no effect, 100 is complete control

Structure (SMILES): C=CCn1nc(C(C)(C)C)cc1C(=O)Nc1cccc(C(=O)NCC)c1 [Compound 56]
- Plant response rating, Oat, Wild (wild oat; Postemergence, 500 g ai/ha): 20
- Oat, Wild plant response rating (wild oat; [4]): 20
- Plant response rating, Lambsquarters (lambsquarters; [5]): 90
- Lambsquarters plant response rating (lambsquarters; [6]): 100
- Lambsquarters plant response rating (lambsquarters; [7]): 80
- Plant response rating, Lambsquarters (lambsquarters; [8]): 100
- Plant response rating, Blackgrass (blackgrass; [9]): 10
- Blackgrass plant response rating (blackgrass; [10]): 0
- Plant response rating, Corn (corn; [5]): 30
- Corn plant response rating (corn; [6]): 20
- Corn plant response rating (corn; [7]): 20
- Plant response rating, Corn (corn; [8]): 0
- Plant response rating, Wheat (wheat; [11]): 20
- Wheat plant response rating (wheat; [7]): 10
- Plant response rating, Surinam Grass (Surinam grass; [5]): 30
- Surinam Grass plant response rating (Surinam grass; [6]): 60
- Surinam Grass plant response rating (Surinam grass; [7]): 20
- Plant response rating, Surinam Grass (Surinam grass; [8]): 30
- Plant response rating, Cocklebur (cocklebur; [5]): 80
- Cocklebur plant response rating (cocklebur; [6]): 20
- Cocklebur plant response rating (cocklebur; [7]): 80
- Plant response rating, Cocklebur (cocklebur; [8]): 0
- Plant response rating, Crabgrass, Large (large crabgrass; [5]): 20
- Crabgrass, Large plant response rating (large crabgrass; [6]): 100
- Crabgrass, Large plant response rating (large crabgrass; [7]): 10
- Plant response rating, Crabgrass, Large (large crabgrass; [8]): 70
- Sedge, Umbrella plant response rating ([1]; visual rating, 13 to 15 days): 80
- Plant response rating, Velvetleaf (velvetleaf; [5]): 50
- Velvetleaf plant response rating (velvetleaf; [6]): 100
- Velvetleaf plant response rating (velvetleaf; [7]): 40
- Plant response rating, Velvetleaf (velvetleaf; [8]): 0
- Rice plant response rating (rice; visual rating, 13 to 15 days): 70
- Plant response rating, Morningglory (morningglory; [5]): 20
- Morningglory plant response rating (morningglory; [6]): 20
- Morningglory plant response rating (morningglory; [7]): 0
- Plant response rating, Morningglory (morningglory; [8]): 20
- Plant response rating, Barnyardgrass (barnyardgrass [2]; [5]): 20
- Barnyardgrass plant response rating (barnyardgrass [2]; [6]): 80
- Barnyardgrass plant response rating (barnyardgrass [2]; [7]): 20
- Plant response rating, Barnyardgrass (barnyardgrass [2]; [8]): 50
- Barnyardgrass plant response rating (barnyardgrass [3]; visual rating, 13 to 15 days): 80
- Ducksalad plant response rating (ducksalad; visual rating, 13 to 15 days): 80

Structure (SMILES): CCc1nn(C(C)C)nc1C(=O)Nc1cccc(C(=O)N2CCCCC2)c1 [Compound 385]
- Oat, Wild plant response rating (wild oat; 125 g ai/ha, visual rating, postemergence): 0
- Oat, Wild plant response rating (wild oat; Postemergence, 500 g ai/ha): 20
- Plant response rating (0 to 100 scale), Lambsquarters (lambsquarters; [12]): 90
- Lambsquarters plant response rating (lambsquarters; [13]): 50
- Lambsquarters plant response rating (lambsquarters; [11]): 60
- Blackgrass plant response rating (blackgrass; 125 g ai/ha; visual rating, scale 0 (no effect) to 100 (complete control); postemergence): 10
- Blackgrass plant response rating (blackgrass; postemergence, 500 g ai/ha; scale 0 to 100, 0 is no effect, 100 is complete control): 30
- Plant response rating (0 to 100 scale), Corn (corn; [12]): 30
- Corn plant response rating (corn; [13]): 10
- Corn plant response rating (corn; [14]): 10
- Wheat plant response rating (wheat; [13]): 0
- Wheat plant response rating (wheat; 500 g ai/ha, scale 0 to 100, 0 no effect, 100 complete control, preemergence): 80
- Wheat plant response rating (wheat; [11]): 10
- Plant response rating (0 to 100 scale), Surinam Grass (Surinam grass; [12]): 80
- Surinam Grass plant response rating (Surinam grass; [13]): 0
- Surinam Grass plant response rating (Surinam grass; [11]): 20
- Plant response rating (0 to 100 scale), Cocklebur (cocklebur; [12]): 0
- Cocklebur plant response rating (cocklebur; [13]): 20
- Cocklebur plant response rating (cocklebur; [14]): 50
- Plant response rating (0 to 100 scale), Crabgrass, Large (large crabgrass; [12]): 90
- Crabgrass, Large plant response rating (large crabgrass; [13]): 0
- Crabgrass, Large plant response rating (large crabgrass; [14]): 20
- Sedge, Umbrella plant response rating [1]: 80
- Plant response rating (0 to 100 scale), Velvetleaf (velvetleaf; [12]): 60
- Velvetleaf plant response rating (velvetleaf; [13]): 20
- Velvetleaf plant response rating (velvetleaf; [11]): 20
- Rice plant response rating (rice): 80
- Plant response rating (0 to 100 scale), Morningglory (morningglory; [12]): 20
- Morningglory plant response rating (morningglory; [13]): 30
- Morningglory plant response rating (morningglory; [11]): 80
- Plant response rating (0 to 100 scale), Barnyardgrass (barnyardgrass [2]; [12]): 80
- Barnyardgrass plant response rating (barnyardgrass [2]; [13]): 0
- Barnyardgrass plant response rating (barnyardgrass [2]; [14]): 10
- Barnyardgrass plant response rating (barnyardgrass [3]): 80
- Ducksalad plant response rating (ducksalad): 80

Structure (SMILES): CCN1CCc2c(NC(=O)c3cc(C(C)(C)C)nn3CC)cccc2C1=O [Compound 63]
- Plant response rating, Oat, Wild (wild oat; Postemergence, 500 g ai/ha): 30
- Oat, Wild plant response rating (wild oat; [4]): 20
- Plant response rating, Lambsquarters (lambsquarters; [5]): 80
- Lambsquarters plant response rating (lambsquarters; [7]): 80
- Plant response rating, Lambsquarters (lambsquarters; [8]): 90
- Plant response rating, Blackgrass (blackgrass; [9]): 20
- Blackgrass plant response rating (blackgrass; [10]): 10
- Plant response rating, Corn (corn; [5]): 20
- Corn plant response rating (corn; [6]): 30
- Corn plant response rating (corn; [7]): 20
- Plant response rating, Corn (corn; [8]): 0
- Plant response rating, Wheat (wheat; [11]): 10
- Wheat plant response rating (wheat; [7]): 10
- Plant response rating, Surinam Grass (Surinam grass; [5]): 20
- Surinam Grass plant response rating (Surinam grass; [7]): 10
- Plant response rating, Surinam Grass (Surinam grass; [8]): 20
- Plant response rating, Cocklebur (cocklebur; [5]): 70
- Cocklebur plant response rating (cocklebur; [6]): 10
- Cocklebur plant response rating (cocklebur; [7]): 60
- Plant response rating, Cocklebur (cocklebur; [8]): 0
- Plant response rating, Crabgrass, Large (large crabgrass; [5]): 20
- Crabgrass, Large plant response rating (large crabgrass; [6]): 100
- Crabgrass, Large plant response rating (large crabgrass; [7]): 10
- Plant response rating, Crabgrass, Large (large crabgrass; [8]): 70
- Sedge, Umbrella plant response rating ([1]; visual rating, 13 to 15 days): 100
- Plant response rating, Velvetleaf (velvetleaf; [5]): 50
- Velvetleaf plant response rating (velvetleaf; [7]): 40
- Plant response rating, Velvetleaf (velvetleaf; [8]): 10
- Rice plant response rating (rice; visual rating, 13 to 15 days): 60
- Plant response rating, Morningglory (morningglory; [5]): 20
- Morningglory plant response rating (morningglory; [7]): 20
- Plant response rating, Morningglory (morningglory; [8]): 0
- Plant response rating, Barnyardgrass (barnyardgrass [2]; [5]): 20
- Barnyardgrass plant response rating (barnyardgrass [2]; [6]): 100
- Barnyardgrass plant response rating (barnyardgrass [2]; [7]): 10
- Plant response rating, Barnyardgrass (barnyardgrass [2]; [8]): 60
- Barnyardgrass plant response rating (barnyardgrass [3]; visual rating, 13 to 15 days): 80
- Ducksalad plant response rating (ducksalad; visual rating, 13 to 15 days): 90

Reference: patent US20060069132A1, “Azolecarboxamide herbicides” (priority 2004, published 2006)
